The results in this text go back to ChEMBL document CHEMBL1127863, “New nonpeptide angiostensin II receptor antagonists. Synthesis, biological properties and structure-activity relationships of 3-substituted 2,6-dialkyl-4-(biphenyll)methylaminopyridine derivatives” (Bioorg Med Chem Lett, 1994).

One may read the ED50 as the midpoint of the dose-response relation. Low readings indicate greater potency, high ones weaker potency. In general, IC50 refers to the midpoint of a concentration-inhibition curve. Lower therefore signals greater potency in that assay.

One assay deals with Rattus norvegicus. The experiment in a line: Effective dose following intravenous administration to conscious rats for inhibition of AII-induced pressor response. The assay is classed as functional.
The target of assay [1] is Angiotensin II receptor (Cavia porcellus). The experiment in a line: Inhibition of [125I]AII binding to guinea pig adrenal membrane.

Regarding `CCc1cc(OCc2ccc(-c3ccccc3-c3nn[nH]n3)cc2)c2ccccc2n1`, it took a dose of 1 mg/kg to reach the 50% effect level in the assay on Rattus norvegicus (ED50).
In assay [1], `COC(=O)c1c(NCc2ccc(-c3ccccc3-c3nn[nH]n3)cc2)cc(C)nc1C` came in with an IC50 of 8.03 nM.
Consider `CCc1cc(OCc2ccc(-c3ccccc3-c3nn[nH]n3)cc2)c(I)c(CC)n1`, for which the 50% effect level with Rattus norvegicus (ED50) was put at a dose of 0.44 mg/kg. In assay [1], this molecule registered an IC50 of 14 nM.
As for `CCc1cc(NCc2ccc(-c3ccccc3-c3nn[nH]n3)cc2)c(-c2ccc(C(F)(F)F)cc2)c(CC)n1`, the IC50 in assay [1] was 26.4 nM.
The molecule `CCc1cc(NCc2ccc(-c3ccccc3-c3nn[nH]n3)cc2)c(Cl)c(CC)n1` showed an ED50 in the assay with Rattus norvegicus of 0.06 mg/kg. Besides, the IC50 in assay [1] is recorded as 7.58 nM.
The corresponding values for `CCc1cc(NCc2ccc(-c3ccccc3-c3nn[nH]n3)cc2)c(Br)c(CC)n1` are 0.09 mg/kg and 3.83 nM.
Molecule `CCc1cc(NCc2ccc(-c3ccccc3-c3nn[nH]n3)cc2)c(C(=O)OC)c(CC)n1` showed a 50% inhibitory concentration (IC50) in assay [1] of 6.21 nM.
Molecule `CCc1cc(NCc2ccc(-c3ccccc3-c3nn[nH]n3)cc2)c(-c2ccc(C)cc2)c(CC)n1` showed an IC50 in assay [1] of 24.9 nM.
In the assay with Rattus norvegicus, `CCc1cc(NCc2ccc(-c3ccccc3-c3nn[nH]n3)cc2)c(I)c(CC)n1` came in with an ED50 of 0.13 mg/kg. This molecule showed an IC50 in assay [1] of 2.64 nM.
In turn, `Cc1cc(NCc2ccc(-c3ccccc3-c3nn[nH]n3)cc2)c(I)c(C)n1` registered an ED50 in the assay with Rattus norvegicus of 0.05 mg/kg. For the same molecule, the IC50 in assay [1] was 3.48 nM.
In the assay on Rattus norvegicus, `Cc1cc(NCc2ccc(-c3ccccc3-c3nn[nH]n3)cc2)c(Cl)c(C)n1` displayed a median effective dose (ED50) of 0.03 mg/kg. In assay [1], this molecule registered an IC50 of 6.65 nM.
For `CCc1cc(OCc2ccc(-c3ccccc3-c3nn[nH]n3)cc2)c2c(n1)CCCC2`, the 50% effect level in the assay with Rattus norvegicus (ED50) was put at a dose of 0.39 mg/kg.
Still for that read-out and setting: to `CCCCc1nc(Cl)c(CO)n1Cc1ccc(-c2ccccc2-c2nnn[nH]2)cc1` [LOSARTAN] belongs 0.65 mg/kg.
